Test results published in EP4729514A1, “BICYCLIC DERIVATIVE PARP INHIBITOR AND USE THEREOF” (Haisco Pharmaceutical Group Co., Ltd., priority 2023, dated 2024).
Like-named read-outs stand apart in the source and are kept apart here.

Legend:
DLD-1 = DLD-1 cell activity assay (CellTiter-Glo, 7 days); format: cell-based; conditions: Homo sapiens, 168 h, 7 days incubation; for inhibition at 10 µM: read-out: Max inh.% 10 µM; for IC50: table does not say whether DLD-1 or DLD-1 BRCA2 KO
Procedure: DLD-1 (150 cells/well/100 µL) (ATCC, CCL-221) and DLD-1 BRCA2 KO (1500 cells/well/100 µL) (from ICE BIOSCIENCE INC.) were inoculated into a 96-well plate (Greiner, 655090) at appropriate cell densities and incubated overnight in a cell incubator at 37°C. The test compound was diluted in the corresponding cell culture medium, and the mixture was added to the well plate and incubated for 7 days. On the fourth day, the medium was replaced with a fresh medium containing the same concentrations of the compounds. The CellTiter-Glo reagent (CTG, Vazyme, DD1101-03) and the culture plate were taken out and returned to room temperature, and then 60 µL of CTG reagent was added to the cells. The plate was then shaken for 2 minutes to ensure complete cell lysis and placed at room temperature for 30 minutes. Luminescence signal values were read using a microplate reader (PHERAstar FSX). The wells containing only culture medium were used as negative controls, and the DMSO-containing wells were used as positive controls. The inhibitory activity percentage of the compounds was normalised using the readings from the negative and positive controls. Calculation formula of inhibition rate: [formula] Table 2 DLD-1 cell activity

PARP-1 = target: T1, PARP-1 (Homo sapiens, UniProt P09874); assay: PARP1 enzyme activity assay (FP method, fluorescent probe); format: biochemical
T1 construct: purchased BPS 80501
T1 sequence (P09874 whole entry): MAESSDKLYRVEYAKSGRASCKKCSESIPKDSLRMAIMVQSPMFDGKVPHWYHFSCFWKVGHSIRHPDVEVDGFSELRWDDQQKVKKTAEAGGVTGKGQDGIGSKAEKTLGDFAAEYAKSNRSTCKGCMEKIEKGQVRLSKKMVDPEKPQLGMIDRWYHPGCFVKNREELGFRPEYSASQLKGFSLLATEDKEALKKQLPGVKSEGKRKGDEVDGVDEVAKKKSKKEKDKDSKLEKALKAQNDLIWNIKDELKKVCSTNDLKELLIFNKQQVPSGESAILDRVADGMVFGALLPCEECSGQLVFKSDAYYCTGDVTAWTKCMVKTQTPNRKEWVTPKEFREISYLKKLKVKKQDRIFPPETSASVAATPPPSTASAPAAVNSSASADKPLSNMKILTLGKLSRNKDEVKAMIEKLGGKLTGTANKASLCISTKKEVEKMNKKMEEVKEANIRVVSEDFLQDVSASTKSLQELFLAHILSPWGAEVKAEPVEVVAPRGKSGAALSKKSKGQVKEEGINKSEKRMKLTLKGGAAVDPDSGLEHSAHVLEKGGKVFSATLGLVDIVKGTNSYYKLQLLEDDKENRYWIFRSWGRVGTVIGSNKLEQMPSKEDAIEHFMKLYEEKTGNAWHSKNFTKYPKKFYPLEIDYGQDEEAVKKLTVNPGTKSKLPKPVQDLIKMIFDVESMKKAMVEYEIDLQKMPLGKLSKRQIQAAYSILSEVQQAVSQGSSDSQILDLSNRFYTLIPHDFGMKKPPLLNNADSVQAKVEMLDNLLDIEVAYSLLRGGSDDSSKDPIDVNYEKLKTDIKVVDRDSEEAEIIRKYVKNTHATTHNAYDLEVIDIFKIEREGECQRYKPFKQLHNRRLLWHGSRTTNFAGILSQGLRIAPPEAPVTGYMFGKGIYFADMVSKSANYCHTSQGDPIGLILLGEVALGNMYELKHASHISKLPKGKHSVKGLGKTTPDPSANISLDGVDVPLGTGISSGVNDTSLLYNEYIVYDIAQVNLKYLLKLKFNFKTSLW
Procedure: The inhibition of compounds on PARP1/2 enzyme activity was tested using the FP method. The substrate tracer fluorescent probe (from ICE BIOSCIENCE INC.) in the reaction was prepared in a reaction buffer (50 mM Tris (pH 8.0), 10 mM MgCl2, 150 mM NaCl, 0.001% Triox-100). PARP1/2 (BPS, Cat #80501/80502) was added to the reaction buffer, and gently mixed. The final concentrations of PARP1/2 and the fluorescent probe in the reaction mixture were 5/10 nM and 2.5 nM, respectively. Positive reference Olaparib was serially diluted 3-fold, from an initial concentration of 1 µM, to generate 10 concentration points. 0.1 µL of the compound in 100% DMSO was delivered to a 384-well plate (Corning, 4514) by the acoustic liquid conveyor (Echo 655), and the plate was centrifuged at 1000 rpm for 1 minute; 5 µL of PARP enzyme solution was transferred into the 384-well reaction plate, and the plate was centrifuged at 1000 rpm for 1 minute, and incubated at 25°C for 10 min; 5 µL of substrate solution was transferred into the 384-well reaction plate, and the plate was centrifuged at 1000 rpm for 1 minute, and incubated at 25°C for 60 minutes; finally, the mP signal value of FP (ex/em: 485 nm/520 nm) was read using the fluorescence polarisation module of the BMG PHERAstar FSX. Subsequently, the IC50 value was determined by fitting the data to a four-parameter nonlinear regression curve using GraphPad Prism 8 software. The inhibition rate was calculated according to formula 1, where RLUsample represents the readout of the compound well, RLUmax represents the readout of the solvent control well, and RLUmin represents the readout of the control well without the PARP1/2 enzyme. The IC50 value was determined by fitting the data to a four-parameter curve (log(inhibitor) vs. response -- Variable slope) using GraphPad Prism software. Inhibition% = (1−(RLUsample−RLUmin)/(RLUmax−RLUmin)) × 100% [formula] Table 1 PARP-1 enzyme activity

A549 PARP2 KO = assay: PARP selectivity experiment (pADPr immunofluorescence after H2O2 stimulation), A549 PARP2 KO cells; format: cell-based
Procedure: (§1) A549WT, A549 PARP1 KO and A549 PARP2 KO cell lines were inoculated into a 384-well plate at 2500/40 µL/well, and incubated overnight at 37°C with 5% CO2. On the next day, 40 nL of serially diluted compounds were added, and the cells were incubated at 37°C with 5% CO2 for 1 hour. The cells were stimulated by adding 5 µL of H2O2. A549 WT and A549 PARP2 KO were stimulated with a final concentration of 200 µM for 5 minutes, and A549 PARP1 KO was stimulated with a final concentration of 20 mM for 45 minutes. After the stimulation, the supernatant was discarded, and the cells were fixed with 40 µL of pre-cooled methanol in a refrigerator at 4°C for 20 minutes. The cells were washed twice with PBS, and blocked with 20 µL of blocking buffer for 1 hour. A primary antibody mixture (prepared by diluting the pADPr antibody (10H: sc-56198) 1 : 500 in blocking buffer) was added, and the plate was incubated overnight at 4°C. The cells were washed three times with PBST. A secondary antibody mixture (prepared by diluting the goat anti-mouse IgG (H+L) highly cross-adsorbed secondary antibody (Alexa Fluor™ 488) 1 : 500 in blocking buffer) was added, and the plate was incubated at room temperature for 1 hour. The cells were washed three times with PBST, and 20 µL of DAPI solution (1 : 5000 dilution) was added. The plate was incubated at room temperature for 10 minutes before scanning. […]

A549 PARP1 KO = assay: PARP selectivity experiment (pADPr immunofluorescence after H2O2 stimulation), A549 PARP1 KO cells; format: cell-based; conditions: Homo sapiens, 0.75 h, H2O2 20 mM for 45 minutes
Procedure: as §1

[1] = Pharmacokinetic test in rats; format: in vivo, SD rats; conditions: for Kp at 24 h: brain, 24 h after administration, cell spans the i.v. and i.g. lines, read-out: Brain/Plasma Ratio (24 h); for Kp at 24 h / bioavailability: rat; for pharmacokinetic characteristics in rats: conclusion in words; for AUC(0-t) at 24 h / clearance / Vd: rat plasma; for Vd: read-out: Vdss; for bioavailability: plasma
Procedure: 4.1. Experimental animals: Male SD rats (about 220 g, 6-8 weeks old, 6 rats/compound) purchased from CHENGDU DOSSY EXPERIMENTAL ANIMALS CO., LTD.
4.2 Experimental design: on the day of the experiment, 12 SD rats were randomly grouped according to their body weights. The animals were fasted with water available for 12-14 h one day before the administration, and were fed 4 h after the administration. Table 4. Administration information
Before and after administration, 0.15 ml of blood was taken from the orbit under isoflurane anaesthesia and placed in an EDTAK2 centrifuge tube. The tube was centrifuged at 5000 rpm at 4°C for 10 min, and plasma was collected. The blood collection time points for the intravenous administration group and intragastric administration group were: 0, 5 min, 15 min, 30 min, 1 h, 2 h, 4 h, 6 h, 8 h and 24 h. The brain tissues were collected 24 hours after the administration, rinsed with cold physiological saline to remove the residual blood on the surface, drained out and then homogenised. Before analysis and detection, all samples were stored at -80°C. The samples were quantitatively analysed by LC-MS/MS. Table 5. Pharmacokinetic parameters of test compounds in plasma of rats

[2] = PARP-1 enzyme activity, FP method, read-out: IC50

IC50 (PARP-1; [2]) [nM] | Compound | inhibition at 10 µM (DLD-1) [%] | IC50 (DLD-1) [nM] | IC50 (PARP-1) [nM] | also measured
– | CCc1nc2ccc(CN3CCN(c4ccc(C(=O)Nc5cn(C)nc5F)nc4F)CC3)c(F)c2[nH]c1=O [Compound 1] | 94 | 3.64 | 2.74 | –
– | Cn1cc(NC(=O)c2ccc(N3CCN(Cc4ccc5nc(C(F)F)c(=O)[nH]c5c4F)CC3)c(F)n2)c(F)n1 [Compound 2] | 93.1 | 4.67 | 10.8 | IC50 (A549 PARP2 KO; Homo sapiens, 5 min, A549 PARP2 KO cells, H2O2 200 µM for 5 minutes): 0.63 nM; selectivity for PARP1 (A549 PARP2 KO; conclusion in words, from A549 PARP2 KO versus A549 PARP1 KO): good selectivity for PARP1; IC50 (A549 PARP1 KO): > 5 µM; Kp at 24 h ([1]; iv): 1.03; pharmacokinetic characteristics in rats [1]: good pharmacokinetic characteristics; AUC(0-t) at 24 h ([1]; iv, i.v. (2.5 mg/kg)): 18700 ± 972 ng·h/mL; clearance ([1]; iv, i.v. (2.5 mg/kg)): 2.22 ± 0.11 mL/min/kg; Vd ([1]; iv, i.v. (2.5 mg/kg)): 0.348 ± 0.027 L/kg; bioavailability ([1]; po, i.g. (10 mg/kg)): 66.8 ± 15%; AUC(0-t) at 24 h ([1]; po, i.g. (10 mg/kg)): 50000 ± 11500 ng·h/mL
– | Cn1ncc(NC(=O)c2ccc(N3CCN(Cc4ccc5nc(C(F)F)c(=O)[nH]c5c4F)CC3)c(F)n2)c1F [Compound 3] | 91.6 | 4.67 | 10.5 | –
– | CCc1nc2ccc(CN3CCN(c4ccc(C(=O)Nc5cnn(C)c5F)nc4F)CC3)c(F)c2[nH]c1=O [Compound 4] | 91.7 | 3.1 | 3.38 | –
17.1 | Cn1ncc(C(=O)Nc2ccc(N3CCN(Cc4ccc5nc(C(F)F)c(=O)[nH]c5c4F)CC3)c(F)n2)c1F [Compound 5] | – | – | – | –
10.5 | CCc1nc2ccc(CN3CCN(c4ccc(NC(=O)c5cn(C)nc5F)nc4F)CC3)c(F)c2[nH]c1=O [Compound 6] | – | – | – | –
12.5 | C=C1CC(NC(=O)c2ccc(N3CCN(Cc4ccc5nc(C(F)F)c(=O)[nH]c5c4F)CC3)c(F)n2)C1 [Compound 7] | – | – | – | –
– | C=C1CC(NC(=O)c2ccc(O[C@H]3CN(Cc4ccc5nc(CC)c(=O)[nH]c5c4F)[C@@H]3C)c(F)n2)C1 [Compound 8] | 86.7 | 16.8 | 5.42 | Kp at 24 h ([1]; iv): 0.242; pharmacokinetic characteristics in rats [1]: good pharmacokinetic characteristics; AUC(0-t) at 24 h ([1]; iv, i.v. (2.5 mg/kg)): 5720 ± 298 ng·h/mL; clearance ([1]; iv, i.v. (2.5 mg/kg)): 4.36 ± 0.74 mL/min/kg; Vd ([1]; iv, i.v. (2.5 mg/kg)): 0.855 ± 0.16 L/kg; bioavailability ([1]; po, i.g. (10 mg/kg)): 81.9 ± 22%; AUC(0-t) at 24 h ([1]; po, i.g. (10 mg/kg)): 31800 ± 8480 ng·h/mL
– | C=C1CC(NC(=O)c2ccc(N3CCN(Cc4ccc5nc(C)c(=O)[nH]c5c4F)CC3)c(F)n2)C1 [Compound 9] | 81.8 | 7.99 | 3.25 | –
– | C=C1CC(NC(=O)c2ccc(N3CCN(Cc4ccc5nc(CC)c(=O)[nH]c5c4F)CC3)c(F)n2)C1 [Compound 10] | 87.6 | 6.96 | 4.55 | –
5.63 | CCc1nc2ccc(CN3C[C@H](Oc4ccc(C(=O)NC5CC(=C(F)F)C5)nc4F)[C@H]3C)c(F)c2[nH]c1=O (stereo partly drawn) [Compound 11] | – | – | – | –
3.14 | Cc1nc2ccc(CN3CCN(c4ccc(C(=O)NC5CC(=C(F)F)C5)nc4F)CC3)c(F)c2[nH]c1=O (stereo not drawn) [Compound 12] | – | – | – | –
6.39 | CCc1nc2ccc(CN3CCN(c4ccc(C(=O)NC5CC(=C(F)F)C5)nc4F)CC3)c(F)c2[nH]c1=O (stereo not drawn) [Compound 13] | – | – | – | –
7.94 | C=C1CC(NC(=O)c2ccc(O[C@H]3CN(Cc4ccc5nc(C)c(=O)[nH]c5c4F)[C@@H]3C)c(F)n2)C1 [Compound 18] | – | – | – | –
